Measured values as given in US11058718B2, “Method for treating non-alcoholic steatohepatitis (NASH) with the combination of polaprezinc and sodium selenite” (Medico Consl Co., Ltd., priority 2019, dated 2021).

How the values were obtained:
[1] = tested on: NASH model mice (STAM mouse); assay: NASH model (STAM) mice, oral administration once a day for 28 days; liver tissue images, liver weight, serum and hepatic markers, NAS; type: in vivo; set-up: TNF-alpha, Score showing the degree of inflammation / IFN-gamma, Score showing the degree of inflammation: scale not given here; conditions: for serum ferritin level: oral 28 days (FIG. 7); for TNF-alpha, Score showing the degree of inflammation: oral 28 days (FIG. 11); for IFN-gamma, Score showing the degree of inflammation: oral 28 days (FIG. 12); for hepatic fibrosis area ratio: oral 28 days (FIG. 13); for weight ratio of liver to body / serum ALT level / hepatic TG (hepatic triglyceride) / MCP-1 (monocyte chemotactic protein-1) / NAS (NAFLD activity score) / hepatic ballooning score / lobular inflammation score / steatosis score / NAS (NAFLD activity score) improvement, in words: oral 28 days; for weight ratio of liver to body: after administration (FIG. 5); for serum ALT level: after administration (FIG. 6); for hepatic TG (hepatic triglyceride): after administration (FIG. 9); for MCP-1 (monocyte chemotactic protein-1): after administration (FIG. 10); for NAS (NAFLD activity score): full score of 8 (FIG. 17); for hepatic ballooning score: score of 0 to 2 (FIG. 14); for lobular inflammation score: score of 0 to 3 (FIG. 15); for steatosis score: score of 0 to 3 (FIG. 16); for liver weight: oral once a day, 28 days, polaprezinc 45.2 mg/kg, sodium selenite 150 μg/kg, after administration (FIG. 4); for NAS (NAFLD activity score) improvement, in words: comparison between groups
Experimental: An internationally prized and recognized STAM (registered trademark) mouse was used for the research model of non-alcoholic fatty liver disease (NAFLD) and/or non-alcoholic steatohepatitis (NASH). A STAM (registered trademark) mouse is an animal model of non-alcoholic steatohepatitis prepared by administrating inflammation inducer of the pancreas (patent literature 2) which Stelic Institute & Co. developed and is publically informed as patentee, and many research reports using this animal model has already been made domestic and overseas.
The NASH model mice were assigned to four groups (eight mice per group) by body weight stratification random sampling method so that the average body weight is equal. The four groups are the zinc preparation (polaprezinc)+selenium preparation (sodium selenite) group, zinc preparation (polaprezinc) alone group, selenium preparation (sodium selenite) alone group, and control group. The route of administration was oral administration, and the period of administration was 28 days.
The number of administration was once a day. The dosage was 10 ml/kg body weight and was administrated using an oral zonde.
The dosages of each group are shown below.
Blood was collected from the heart under ether anesthesia at the end of administration. The obtained serum was divisionally injected into a tube. It was euthanized by exsanguination after blood sampling and the photograph of the extracted liver was taken. For all necropsied animals, treatment was made to divide the liver into four respective lobes (right/left medial lobe, left lateral lobe, right lobe, caudate lobe), wherein especially the left lateral lobe was treated for three parts taking two each of its six equally divided parts, and the tissue image was analyzed.
The evaluation for non-alcoholic fatty liver disease (NAFLD) and/or non-alcoholic steatohepatitis (NASH) improvement was evaluated by the following items.
NAS (NAFLD activity score) is used to evaluate non-alcoholic fatty liver disease (NAFLD). NAS is advocated by Nonalcoholic⋅Steato⋅hepatitis⋅Clinical⋅Research⋅Network (nonpatent literature 2). […] The activity of NAS is evaluated by putting the three of steatosis, lobular inflammation, and Ballooning degeneration into scores. It is shown in full score of 8 in total, score of 0 to 3 for steatosis and lobular inflammation, and score of 0 to 2 for hepatic Ballooning degeneration. Steatosis, lobular inflammation, hepatic Ballooning degeneration, and NAS (NAFLD activity score) was compared and examined for the four groups, the group of the combination drug of zinc preparation (polaprezinc) and selenium preparation (sodium selenite), the control group, the zinc preparation (polaprezinc) alone group, and the selenium preparation (sodium selenite) alone group.

hepatic fibrosis = conditions: from patent literature 1, nonpatent literature 3 and 5; cited from earlier work

| Structure (SMILES) | serum ferritin level [1] | TNF-alpha, Score showing the degree of inflammation [1] | IFN-gamma, Score showing the degree of inflammation [1] | hepatic fibrosis area ratio [1] [%] | weight ratio of liver to body [1] [%] | serum ALT level [1] [IU/L] | hepatic TG (hepatic triglyceride) [1] [mg/dL] | MCP-1 (monocyte chemotactic protein-1) [1] | NAS (NAFLD activity score) [1] | hepatic ballooning score [1] | lobular inflammation score [1] | steatosis score [1] | liver weight [1] | suppression of hepatic fibrosis (prior reports) (hepatic fibrosis) | F4/80 (macrophage) antigen expression level in stained liver tissue ([1]; oral 28 days (FIG. 2-1, 2-2)) | NAS (NAFLD activity score) improvement, in words [1] | NAS (NAFLD activity score) improvement, in words ([1]; listed as Zinc preparation (polaprezinc)) |
| --- | --- | --- | --- | --- | --- | --- | --- | --- | --- | --- | --- | --- | --- | --- | --- | --- | --- |
| O=[Se](O)O [selenium preparation (sodium selenite), sodium selenite] | 5,251 ng/ml | 13.23 | 8.02 | 1.18 | 7.43 | 54.6 | 57.3 | 3.2 | 3.54 | 1.23 | 1.46 | 0.85 | 1,385.2 mg | – | – | – | – |
| NCCC(=O)[N-][C@@H](Cc1c[nH]cn1)C(=O)[O-].[Zn+2] [zinc preparation (polaprezinc), L-carnosine zinc salt] | 5,740 ng/ml | 12.80 | 7.95 | 1.16 | 7.49 | 58.8 | 64.2 | 3.3 | 3.62 | 1.38 | 1.38 | 0.85 | 1,389 mg | suppresses hepatic fibrosis | suppresses the expression level significantly compared with the control | significantly declined NAS (NAFLD activity score) compared with the control group | showed improvement compared to the control group |
